# Test results published in patent US5840684A, “Glycopeptide antibiotic derivatives” (Eli Lilly and Company, priority 1995, dated 1998).
# What was measured:
# [1] = test system: Staphylococcus aureus 446; test: broth micro-dilution MIC; format: cell-based
# Description: (§1) The MIC's were determined using a standard broth micro-dilution assay.
# [2] = test system: Staphylococcus aureus X778; test: broth micro-dilution MIC; format: cell-based
# Description: as §1
# [3] = test system: Staphylococcus aureus SA1199A; test: broth micro-dilution MIC; format: cell-based
# Description: as §1
# [4] = test system: Staphylococcus aureus 447; test: broth micro-dilution MIC; format: cell-based
# Description: as §1
# [5] = test system: Entercoccus faecium 180-1; test: broth micro-dilution MIC; format: cell-based
# Description: as §1
# [6] = test system: Streptococcus pyogenes C203; test: broth micro-dilution MIC; format: cell-based
# Description: as §1
# [7] = test system: Staphylococcus aureus SA1199; test: broth micro-dilution MIC; format: cell-based
# Description: as §1
# Entercoccus faecium 276 = test: broth micro-dilution MIC; format: cell-based
# Description: as §1
# [8] = test system: Staphylococcus aureus 489; test: broth micro-dilution MIC; format: cell-based
# Description: as §1
# [9] = test system: Staphylococcus aureus X400; test: broth micro-dilution MIC; format: cell-based
# Description: as §1
# [10] = test system: Staphylococcus aureus 491; test: broth micro-dilution MIC; format: cell-based
# Description: as §1
# Entercoccus faecium 180 = test: broth micro-dilution MIC; format: cell-based; conditions: Entercoccus faecium 180
# Description: (§2) The formula I compounds have in vitro and in vivo activity against Gram-positive pathogenic bacteria. The MIC's were determined using a standard broth micro-dilution assay.
# Entercoccus faecium 2041 = test: broth micro-dilution MIC; format: cell-based; conditions: Entercoccus faecium 2041
# Description: as §2
# [11] = test system: Staphylococcus epidermidis 270; test: broth micro-dilution MIC; format: cell-based
# Description: as §2
# [12] = test system: Staphylococcus haemolyticus 105; test: broth micro-dilution MIC; format: cell-based
# Description: as §2
# [13] = test system: Streptococcus pneumoniae P1; test: broth micro-dilution MIC; format: cell-based
# Description: as §2
# [14] = test system: Enterococcus gallinarum 245; test: broth micro-dilution MIC; format: cell-based; conditions: Enterococcus gallinarum 245
# Description: as §2
# [15] = test system: Staphylococcus haemolyticus 415; test: broth micro-dilution MIC; format: cell-based
# Description: as §2
# [16] = test system: vancomycin-susceptible enterococci; test: broth micro-dilution, mean geometric MIC; format: cell-based, Enterococcus faecium and Enterococcus faecalis; conditions: enterococci, 24-hour incubation
# [17] = test system: Staphylococcus aureus S13E; format: cell-based
# Description: as §1
# [18] = test system: Staphylococcus aureus SA1199B; format: cell-based
# Description: as §1
# [19] = test system: vancomycin-resistant enterococci; test: broth micro-dilution, mean geometric MIC; format: cell-based, Enterococcus faecium and Enterococcus faecalis; conditions: enterococci, 24-hour incubation
SMILES,MIC [1] [µg/mL],MIC [2] [µg/mL],MIC [3] [µg/mL],MIC [4] [µg/mL],MIC [5] [µg/mL],MIC [6] [µg/mL],MIC [7] [µg/mL],MIC (Entercoccus faecium 276) [µg/mL],MIC [8] [µg/mL],MIC [9] [µg/mL],MIC [10] [µg/mL],MIC (Entercoccus faecium 180) [µg/mL],MIC (Entercoccus faecium 2041) [µg/mL],MIC [11] [µg/mL],MIC [12] [µg/mL],MIC [13] [µg/mL],MIC [14] [µg/mL],MIC [15] [µg/mL],"mean geometric MIC, Vancomycin Sensitive Strains [16] [µg/mL]",MIC [17] [µg/mL],other results
CNC(CC(C)C)C(=O)NC1C(=O)NC(CC(N)=O)C(=O)NC2C(=O)NC3C(=O)NC(C(=O)NC(C(=O)O)c4cc(O)cc(O)c4-c4cc3ccc4O)C(OC3CC(C)(N)C(O)C(C)O3)c3ccc(c(Cl)c3)Oc3cc2cc(c3OC2OC(CO)C(O)C(O)C2OC2CC(C)(NCc3cc4ccccc4c4ccccc34)C(O)C(C)O2)Oc2ccc(cc2Cl)C1O (stereo not drawn) [Compound 11],4,0.25,≤ 0.06,4,≤ 0.06,≤ 0.06,2,1,1,0.5,1,1,0.5,2,4,≤ 0.06,≤ 0.06,2,0.22,0.5,MIC [18]: 2 µg/mL
CNC(CC(C)C)C(=O)NC1C(=O)NC(CC(N)=O)C(=O)NC2C(=O)NC3C(=O)NC(C(=O)NC(C(=O)O)c4cc(O)cc(O)c4-c4cc3ccc4O)C(OC3CC(C)(N)C(O)C(C)O3)c3ccc(c(Cl)c3)Oc3cc2cc(c3OC2OC(CO)C(O)C(O)C2OC2CC(C)(NCc3c4ccccc4cc4ccccc34)C(O)C(C)O2)Oc2ccc(cc2Cl)C1O (stereo not drawn) [Compound 13],2,2,≤ 0.06,8,≤ 0.06,≤ 0.06,0.5,0.5,1,1,2,2,0.125,8,8,≤ 0.06,0.25,1,0.76,0.25,"mean geometric MIC, Vancomycin Resistant Strains [19]: 19 µg/mL; MIC [18]: 4 µg/mL"
CNC(CC(C)C)C(=O)NC1C(=O)NC(CC(N)=O)C(=O)NC2C(=O)NC3C(=O)NC(C(=O)NC(C(=O)O)c4cc(O)cc(O)c4-c4cc3ccc4O)C(OC3CC(C)(N)C(O)C(C)O3)c3ccc(c(Cl)c3)Oc3cc2cc(c3OC2OC(CO)C(O)C(O)C2OC2CC(C)(NCc3cccnc3)C(O)C(C)O2)Oc2ccc(cc2Cl)C1O (stereo not drawn) [Compound 24],0.5,0.125,≤ 0.06,1,≤ 0.06,≤ 0.06,0.5,0.25,≤ 0.06,0.25,0.5,4,≤ 0.06,1,4,≤ 0.06,0.25,≤ 0.06,0.67,≤ 0.06,"mean geometric MIC, Vancomycin Resistant Strains [19]: 54 µg/mL; MIC [18]: 2 µg/mL"
CNC(CC(C)C)C(=O)NC1C(=O)NC(CC(N)=O)C(=O)NC2C(=O)NC3C(=O)NC(C(=O)NC(C(=O)O)c4cc(O)cc(O)c4-c4cc3ccc4O)C(OC3CC(C)(N)C(O)C(C)O3)c3ccc(c(Cl)c3)Oc3cc2cc(c3OC2OC(CO)C(O)C(O)C2OC2CC(C)(NCc3ccnc4ccccc34)C(O)C(C)O2)Oc2ccc(cc2Cl)C1O (stereo not drawn) [Compound 27],2,0.5,≤ 0.06,8,0.5,≤ 0.06,0.5,0.5,≤ 0.06,0.5,1,8,0.125,4,16,≤ 0.06,0.5,8,1.5,0.125,"mean geometric MIC, Vancomycin Resistant Strains [19]: 45 µg/mL; MIC [18]: 1 µg/mL"
CNC(CC(C)C)C(=O)NC1C(=O)NC(CC(N)=O)C(=O)NC2C(=O)NC3C(=O)NC(C(=O)NC(C(=O)O)c4cc(O)cc(O)c4-c4cc3ccc4O)C(OC3CC(C)(N)C(O)C(C)O3)c3ccc(c(Cl)c3)Oc3cc2cc(c3OC2OC(CO)C(O)C(O)C2OC2CC(C)(NCc3cccc(Oc4ccc(Cl)cc4)c3)C(O)C(C)O2)Oc2ccc(cc2Cl)C1O (stereo not drawn) [Compound 86],1,1,≤ 0.06,0.5,≤ 0.06,≤ 0.06,0.5,≤ 0.06,1,1,1,≤ 0.06,≤ 0.06,1,1,≤ 0.06,1,1,0.036,1,"mean geometric MIC, Vancomycin Resistant Strains [19]: 1.4 µg/mL; MIC [18]: 1 µg/mL"
CN[C@H](CC(C)C)C(=O)N[C@H]1C(=O)N[C@@H](CC(N)=O)C(=O)N[C@H]2C(=O)N[C@H]3C(=O)N[C@H](C(=O)N[C@H](C(=O)O)c4cc(O)cc(O)c4-c4cc3ccc4O)[C@H](O[C@H]3C[C@](C)(N)[C@@H](O)[C@H](C)O3)c3ccc(c(Cl)c3)Oc3cc2cc(c3O[C@@H]2O[C@H](CO)[C@@H](O)[C@H](O)[C@H]2O[C@H]2C[C@](C)(NCc3cccc(-c4ccccc4)c3)[C@@H](O)[C@H](C)O2)Oc2ccc(cc2Cl)[C@H]1O [Compound 91],0.5,≤ 0.06,≤ 0.06,0.5,≤ 0.06,≤ 0.06,≤ 0.06,≤ 0.06,≤ 0.06,0.5,1,0.5,≤ 0.06,0.5,2,≤ 0.06,2,2,0.11,≤ 0.06,"mean geometric MIC, Vancomycin Resistant Strains [19]: 2.8 µg/mL; MIC [18]: 0.5 µg/mL"
CN[C@H](CC(C)C)C(=O)N[C@H]1C(=O)N[C@@H](CC(N)=O)C(=O)N[C@H]2C(=O)N[C@H]3C(=O)N[C@H](C(=O)N[C@H](C(=O)O)c4cc(O)cc(O)c4-c4cc3ccc4O)[C@H](O[C@H]3C[C@](C)(N)[C@@H](O)[C@H](C)O3)c3ccc(c(Cl)c3)Oc3cc2cc(c3O[C@@H]2O[C@H](CO)[C@@H](O)[C@H](O)[C@H]2O[C@H]2C[C@](C)(NCc3ccc(Oc4ccc(C)cc4)cc3)[C@@H](O)[C@H](C)O2)Oc2ccc(cc2Cl)[C@H]1O [Compound 95],0.5,1,≤ 0.06,0.5,≤ 0.06,≤ 0.06,0.5,0.125,2,1,1,0.5,≤ 0.06,1,1,≤ 0.06,1,1,0.054,2,"mean geometric MIC, Vancomycin Resistant Strains [19]: 1.7 µg/mL; MIC [18]: 1 µg/mL"
